Entries after “also recorded” stand apart in the source; their conditions may differ. Counter-ions that a name gives are not always drawn.

From patent US9585892B2, “Solid forms comprising N-(5-tert-butyl-isoxazol-3-yl)-N′-{4-[7-(2-morpholin-4-yl-ethoxy)imidazo[2,1-b][1,3]benzothiazol-2-yl]phenyl}urea, compositions thereof, and uses therewith” (AMBIT BIOSCIENCES CORPORATION, priority 2007, dated 2017) come the findings set out here.

The nature of this series: Stress experiments (temperature or relative humidity, XRPD after stress). In kind it is physicochemical. The procedure: Stress Experiments. Solids were stressed under different temperature or relative humidity (RH) environments for a measured time period. Specific RH values were achieved by placing the sample inside sealed chambers containing saturated salt solutions. The salt solutions were selected and prepared following an ASTM standard procedure. Samples were analyzed by XRPD immediately after removal from the stress environment.
X-ray powder diffraction analyses were performed on an Inel XRG-3000 diffractometer, equipped with a curved position-sensitive detector with a […] of 120°. Real time data was collected using Cu Kα radiation starting at approximately 4 ° 2θ at a resolution of 0.03 ° 2θ. The tube voltage and amperage were set to 40 kV and 30 mA, respectively. […] Samples were prepared for analysis by packing them into thin-walled glass capillaries. Each capillary was mounted onto a goniometer head that is motorized to permit spinning of the capillary during data acquisition. Instrument calibration was performed daily using a silicon reference standard.

Where [1] appears, read: 75% RH, ambient temperature, 3 days.
Where [2] appears, read: 75% RH, ambient temperature, 3 days, listed as Amorphous.

For the molecule `CC(C)(C)c1cc(NC(=O)Nc2ccc(-c3cn4c(n3)sc3cc(OCCN5CCOCC5)ccc34)cc2)no1` [Form A of the HBr salt of Compound B1, N-(5-tert-butyl-isoxazol-3-yl)-N′-{4-[7-(2-morpholin-4-yl-ethoxy)imidazo[2,1-b][1,3]benzothiazol-2-yl]phenyl}urea], for the setting “75% RH, 4 days”, the deliquescence upon storage result is on record as “does not deliquesce; also recorded: did not deliquesce”.

With `CC(C)(C)c1cc(NC(=O)Nc2ccc(-c3cn4c(n3)sc3cc(OCCN5CCOCC5)ccc34)cc2)no1` [Form F of the HCl salt of Compound B1, N-(5-tert-butyl-isoxazol-3-yl)-N′-{4-[7-(2-morpholin-4-yl-ethoxy)imidazo[2,1-b][1,3]benzothiazol-2-yl]phenyl}urea], the “XRPD Result after stress” value runs as follows: (Oven: 80° C., 3 days) “substantially disordered, but which retains some Form F content”; (Oven: 80° C., 3 days, listed as F) “Disordered + F”.

For `CC(C)(C)c1cc(NC(=O)Nc2ccc(-c3cn4c(n3)sc3cc(OCCN5CCOCC5)ccc34)cc2)no1` [Form B of the esylate salt of Compound B1] [N-(5-tert-butyl-isoxazol-3-yl)-N′-{4-[7-(2-morpholin-4-yl-ethoxy)imidazo[2,1-b][1,3]benzothiazol-2-yl]phenyl}urea], under “75% RH, 7 days”, the deliquescence upon storage result is “does not deliquesce; also recorded: did not deliquesce”.

`CC(C)(C)c1cc(NC(=O)Nc2ccc(-c3cn4c(n3)sc3cc(OCCN5CCOCC5)ccc34)cc2)no1` [Form B of the napsylate salt of Compound B1] [N-(5-tert-butyl-isoxazol-3-yl)-N′-{4-[7-(2-morpholin-4-yl-ethoxy)imidazo[2,1-b][1,3]benzothiazol-2-yl]phenyl}urea]: the deliquescence upon storage result (75% RH, 7 days) is “does not deliquesce; also recorded: did not deliquesce”.

`CC(C)(C)c1cc(NC(=O)Nc2ccc(-c3cn4c(n3)sc3cc(OCCN5CCOCC5)ccc34)cc2)no1` [N-(5-tert-butyl-isoxazol-3-yl)-N′-{4-[7-(2-morpholin-4-yl-ethoxy)imidazo[2,1-b][1,3]benzothiazol-2-yl]phenyl}urea]: under setting [1], the “XRPD Result after stress” value is on record as “remains unchanged”, the deliquescence upon storage result is “does not deliquesce; also recorded: did not deliquesce”, the “water corresponding to the weight gain” value is listed as “about 4.3 molar equivalents of water” and the weight gain result is reported as “about 12.3%”. Also, under setting [2], the “XRPD Result after stress” value was “Amorphous” and the weight gain entry is reported as “white solid, irregular particles, 11.8%”. Further, under “Oven: 40° C., 8 days”, the “XRPD Result after stress” value is on record as “remains unchanged”. The “XRPD Result after stress” value (Oven: 40° C., 8 days, listed as Amorphous) is given as “Amorphous”.

`CC(C)(C)c1cc(NC(=O)Nc2ccc(-c3cn4c(n3)sc3cc(OCCN5CCOCC5)ccc34)cc2)no1` [Form B of the mesylate salt of Compound B1] [N-(5-tert-butyl-isoxazol-3-yl)-N′-{4-[7-(2-morpholin-4-yl-ethoxy)imidazo[2,1-b][1,3]benzothiazol-2-yl]phenyl}urea]: the deliquescence upon storage result (75% RH, 4 days) is given as “does not deliquesce; also recorded: did not deliquesce”.

Consider `CC(C)(C)c1cc(NC(=O)Nc2ccc(-c3cn4c(n3)sc3cc(OCCN5CCOCC5)ccc34)cc2)no1` [Form A of the edisylate salt of Compound B1] [N-(5-tert-butyl-isoxazol-3-yl)-N′-{4-[7-(2-morpholin-4-yl-ethoxy)imidazo[2,1-b][1,3]benzothiazol-2-yl]phenyl}urea], for which the deliquescence upon storage entry (75% RH, 7 days) is reported as “does not deliquesce; also recorded: did not deliquesce”.

On to `CC(C)(C)c1cc(NC(=O)Nc2ccc(-c3cn4c(n3)sc3cc(OCCN5CCOCC5)ccc34)cc2)no1` [Form D of the HCl salt of Compound B1, N-(5-tert-butyl-isoxazol-3-yl)-N′-{4-[7-(2-morpholin-4-yl-ethoxy)imidazo[2,1-b][1,3]benzothiazol-2-yl]phenyl}urea], for which the “XRPD Result after stress” value (Oven: 80° C., 3 days) was “Form D”.
